From ChEMBL document CHEMBL1201862, “PubChem BioAssay data set” (2004)
Calls of active or inactive are those of the source.

How the values were obtained:
H9c2 = test: cells; format: functional, cell-based; settings: Rattus norvegicus, H9c2, Myocardium;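 further: confirmatory concentration-response retest of ultra-high-throughput screening hits for modulation of myocardial damage; cell death induced by hydrogen peroxide oxidative stress; compound pretreatment for 60 min then peroxide exposure for 2 h; potency is for protecting the cells against peroxide damage rather than for killing them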
[1] = A Cell Based Secondary Assay To Explore Cytotoxicity of Compounds that Sensitize Mycobacterium Tuberculosis to Beta-Lactam Antibiotics.; format: functional
[2] = target: Voltage-dependent T-type calcium channel subunit alpha-1H (Homo sapiens, UniProt O95180); format: functional;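 further: channel activity triggered by adding a high calcium stimulation buffer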
Chain of Voltage-dependent T-type calcium channel subunit alpha-1H (O95180 whole entry): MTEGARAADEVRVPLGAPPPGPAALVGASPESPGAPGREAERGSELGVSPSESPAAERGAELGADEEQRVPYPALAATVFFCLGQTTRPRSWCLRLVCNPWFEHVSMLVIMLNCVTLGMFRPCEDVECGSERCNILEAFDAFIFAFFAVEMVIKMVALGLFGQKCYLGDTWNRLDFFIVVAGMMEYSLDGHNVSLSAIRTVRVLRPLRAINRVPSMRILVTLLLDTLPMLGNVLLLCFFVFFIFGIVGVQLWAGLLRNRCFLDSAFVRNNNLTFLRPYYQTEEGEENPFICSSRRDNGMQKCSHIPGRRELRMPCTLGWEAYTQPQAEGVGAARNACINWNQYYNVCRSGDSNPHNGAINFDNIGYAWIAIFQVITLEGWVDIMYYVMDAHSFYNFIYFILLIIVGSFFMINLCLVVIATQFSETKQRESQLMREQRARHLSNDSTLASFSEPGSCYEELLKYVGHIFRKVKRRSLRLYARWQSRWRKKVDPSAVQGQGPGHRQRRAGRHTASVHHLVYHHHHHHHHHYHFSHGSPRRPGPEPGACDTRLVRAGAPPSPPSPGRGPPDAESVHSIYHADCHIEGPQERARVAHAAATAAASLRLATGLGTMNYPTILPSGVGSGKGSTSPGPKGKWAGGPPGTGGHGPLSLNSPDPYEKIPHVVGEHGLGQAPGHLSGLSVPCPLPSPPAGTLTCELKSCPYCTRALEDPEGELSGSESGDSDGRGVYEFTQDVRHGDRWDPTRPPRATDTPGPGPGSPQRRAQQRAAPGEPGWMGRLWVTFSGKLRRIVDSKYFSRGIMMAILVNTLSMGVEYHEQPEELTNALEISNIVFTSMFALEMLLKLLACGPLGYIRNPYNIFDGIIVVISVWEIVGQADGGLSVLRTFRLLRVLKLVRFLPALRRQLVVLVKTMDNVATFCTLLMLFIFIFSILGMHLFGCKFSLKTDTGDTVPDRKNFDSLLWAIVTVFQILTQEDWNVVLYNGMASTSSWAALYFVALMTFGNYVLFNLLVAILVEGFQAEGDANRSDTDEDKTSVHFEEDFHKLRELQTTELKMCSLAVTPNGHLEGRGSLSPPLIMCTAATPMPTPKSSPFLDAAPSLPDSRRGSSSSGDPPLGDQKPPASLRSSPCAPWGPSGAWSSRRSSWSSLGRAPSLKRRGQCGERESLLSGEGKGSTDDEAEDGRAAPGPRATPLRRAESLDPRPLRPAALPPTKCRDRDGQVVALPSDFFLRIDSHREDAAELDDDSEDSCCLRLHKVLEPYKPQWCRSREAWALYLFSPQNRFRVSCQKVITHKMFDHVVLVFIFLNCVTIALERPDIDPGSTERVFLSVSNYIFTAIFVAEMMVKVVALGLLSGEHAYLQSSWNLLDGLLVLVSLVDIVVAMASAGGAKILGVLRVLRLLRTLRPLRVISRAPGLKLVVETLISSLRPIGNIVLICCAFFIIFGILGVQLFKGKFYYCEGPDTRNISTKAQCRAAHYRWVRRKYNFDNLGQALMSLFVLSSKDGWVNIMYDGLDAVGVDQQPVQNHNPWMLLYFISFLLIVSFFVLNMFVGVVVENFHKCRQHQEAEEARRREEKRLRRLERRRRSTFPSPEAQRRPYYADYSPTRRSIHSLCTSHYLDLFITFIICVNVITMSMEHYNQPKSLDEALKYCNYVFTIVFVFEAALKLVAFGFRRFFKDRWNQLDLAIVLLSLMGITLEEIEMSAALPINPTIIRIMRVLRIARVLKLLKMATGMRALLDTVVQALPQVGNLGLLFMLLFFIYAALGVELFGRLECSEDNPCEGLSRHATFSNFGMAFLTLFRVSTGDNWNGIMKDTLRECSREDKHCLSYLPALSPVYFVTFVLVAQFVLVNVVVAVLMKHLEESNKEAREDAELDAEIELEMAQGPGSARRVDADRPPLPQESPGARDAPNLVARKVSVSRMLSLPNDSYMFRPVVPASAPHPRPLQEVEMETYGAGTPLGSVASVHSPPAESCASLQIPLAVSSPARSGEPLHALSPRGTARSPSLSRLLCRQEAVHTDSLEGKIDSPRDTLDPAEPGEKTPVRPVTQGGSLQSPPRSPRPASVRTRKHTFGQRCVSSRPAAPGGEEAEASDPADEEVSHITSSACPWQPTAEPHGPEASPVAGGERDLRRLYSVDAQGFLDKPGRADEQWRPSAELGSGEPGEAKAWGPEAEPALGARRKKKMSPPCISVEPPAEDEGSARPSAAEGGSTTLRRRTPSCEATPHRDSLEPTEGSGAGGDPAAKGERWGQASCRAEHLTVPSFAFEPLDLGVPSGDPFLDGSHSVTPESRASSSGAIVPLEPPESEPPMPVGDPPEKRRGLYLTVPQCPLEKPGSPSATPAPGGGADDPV

Cytochrome P450 2C19 = Cytochrome P450 2C19 (Homo sapiens, UniProt P33261); test: Cytochrome panel assay with activity outcomes. Panel member name: p450-cyp2c19 Compounds with AC50 equal or less than 10 uM are considered active; format: functional; settings: read-out: AC50
Chain of Cytochrome P450 2C19 (P33261 whole entry): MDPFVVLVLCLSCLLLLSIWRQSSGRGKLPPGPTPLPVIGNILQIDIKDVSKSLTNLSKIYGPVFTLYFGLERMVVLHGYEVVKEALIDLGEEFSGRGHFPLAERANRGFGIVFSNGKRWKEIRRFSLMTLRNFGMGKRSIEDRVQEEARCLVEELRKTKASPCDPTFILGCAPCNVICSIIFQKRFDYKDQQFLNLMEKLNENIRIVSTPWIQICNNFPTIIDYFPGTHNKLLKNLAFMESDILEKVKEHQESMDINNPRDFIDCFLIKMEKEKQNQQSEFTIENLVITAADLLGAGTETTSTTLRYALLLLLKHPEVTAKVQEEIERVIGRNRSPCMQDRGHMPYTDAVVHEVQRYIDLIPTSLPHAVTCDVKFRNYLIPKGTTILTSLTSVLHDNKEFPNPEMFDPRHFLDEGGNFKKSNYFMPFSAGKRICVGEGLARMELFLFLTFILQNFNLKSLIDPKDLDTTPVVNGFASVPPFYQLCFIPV

Cytochrome P450 2D6 = Cytochrome P450 2D6 (Homo sapiens, UniProt P10635);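 further: CYP2D6 member of a cytochrome P450 panel assay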
Chain of Cytochrome P450 2D6 (P10635 whole entry): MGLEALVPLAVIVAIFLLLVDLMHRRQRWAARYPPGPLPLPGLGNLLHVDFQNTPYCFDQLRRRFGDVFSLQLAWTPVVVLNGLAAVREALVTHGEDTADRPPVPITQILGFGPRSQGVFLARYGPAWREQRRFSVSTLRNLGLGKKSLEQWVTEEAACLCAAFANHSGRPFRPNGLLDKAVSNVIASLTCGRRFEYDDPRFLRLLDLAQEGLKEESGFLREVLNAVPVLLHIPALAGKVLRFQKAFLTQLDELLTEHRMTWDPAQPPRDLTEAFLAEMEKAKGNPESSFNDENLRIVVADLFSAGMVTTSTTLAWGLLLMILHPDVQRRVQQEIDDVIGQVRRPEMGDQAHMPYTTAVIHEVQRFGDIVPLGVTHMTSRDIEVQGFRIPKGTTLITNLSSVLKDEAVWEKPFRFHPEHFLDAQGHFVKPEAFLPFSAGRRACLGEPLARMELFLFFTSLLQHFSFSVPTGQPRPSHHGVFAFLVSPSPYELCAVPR

Cytochrome P450 1A2 = target: T1, Cytochrome P450 1A2 (Homo sapiens, UniProt P05177);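 further: PubChem cytochrome P450 panel assay, CYP1A2 panel member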
T1 sequence (P05177 whole entry): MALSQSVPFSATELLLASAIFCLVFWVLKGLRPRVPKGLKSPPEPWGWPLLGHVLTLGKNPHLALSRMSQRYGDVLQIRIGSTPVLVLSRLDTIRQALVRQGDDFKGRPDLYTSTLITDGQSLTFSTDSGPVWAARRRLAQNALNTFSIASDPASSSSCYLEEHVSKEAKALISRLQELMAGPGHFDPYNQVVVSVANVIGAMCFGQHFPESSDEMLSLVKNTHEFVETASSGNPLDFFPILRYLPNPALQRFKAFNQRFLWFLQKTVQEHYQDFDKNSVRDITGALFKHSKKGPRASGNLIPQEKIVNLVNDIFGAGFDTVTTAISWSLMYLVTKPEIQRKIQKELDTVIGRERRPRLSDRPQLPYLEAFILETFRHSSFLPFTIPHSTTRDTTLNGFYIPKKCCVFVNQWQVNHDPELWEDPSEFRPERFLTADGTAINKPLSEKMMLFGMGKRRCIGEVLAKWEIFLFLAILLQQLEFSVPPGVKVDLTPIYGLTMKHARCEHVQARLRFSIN

[3] = nonselective StAR promoter luciferase inhibitors – cell-based, luminescence, luciferase reporter, counter-screen for LRH-1 inverse agonist project, dose response (AID 651969); format: functional
Steroidogenic factor 1 = Steroidogenic factor 1 (Homo sapiens, UniProt Q13285); test: Counterscreen for inverse agonists of the liver receptor homolog-1 (LRH-1; NR5A2): Luminescence-based cell-based high throughput dose response assay to identify inverse agonists of the Steroidogenic Factor 1 Nuclear Receptor (SF1; NR5A1).; format: functional
Chain of Steroidogenic factor 1 (Q13285 whole entry): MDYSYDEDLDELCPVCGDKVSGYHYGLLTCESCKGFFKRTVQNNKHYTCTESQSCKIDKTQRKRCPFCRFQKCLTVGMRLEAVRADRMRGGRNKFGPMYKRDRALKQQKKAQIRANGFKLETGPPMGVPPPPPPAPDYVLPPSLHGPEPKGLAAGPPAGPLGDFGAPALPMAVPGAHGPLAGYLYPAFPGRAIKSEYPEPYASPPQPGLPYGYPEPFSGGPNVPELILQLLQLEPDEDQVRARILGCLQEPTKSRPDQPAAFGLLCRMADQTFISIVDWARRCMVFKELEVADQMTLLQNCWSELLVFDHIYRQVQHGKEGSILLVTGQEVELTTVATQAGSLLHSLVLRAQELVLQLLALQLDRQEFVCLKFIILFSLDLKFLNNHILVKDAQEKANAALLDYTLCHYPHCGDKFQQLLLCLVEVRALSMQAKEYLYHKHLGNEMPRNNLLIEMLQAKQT

[4] = target: Nuclear receptor subfamily 5 group A member 2 (Homo sapiens, UniProt O00482); format: functional, cell-based;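 further: HEK293T cells transfected with LRH-1 and a StAR promoter luciferase reporter; potency for inhibitors that lower LRH-1 driven reporter light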
Chain of Nuclear receptor subfamily 5 group A member 2 (O00482 whole entry): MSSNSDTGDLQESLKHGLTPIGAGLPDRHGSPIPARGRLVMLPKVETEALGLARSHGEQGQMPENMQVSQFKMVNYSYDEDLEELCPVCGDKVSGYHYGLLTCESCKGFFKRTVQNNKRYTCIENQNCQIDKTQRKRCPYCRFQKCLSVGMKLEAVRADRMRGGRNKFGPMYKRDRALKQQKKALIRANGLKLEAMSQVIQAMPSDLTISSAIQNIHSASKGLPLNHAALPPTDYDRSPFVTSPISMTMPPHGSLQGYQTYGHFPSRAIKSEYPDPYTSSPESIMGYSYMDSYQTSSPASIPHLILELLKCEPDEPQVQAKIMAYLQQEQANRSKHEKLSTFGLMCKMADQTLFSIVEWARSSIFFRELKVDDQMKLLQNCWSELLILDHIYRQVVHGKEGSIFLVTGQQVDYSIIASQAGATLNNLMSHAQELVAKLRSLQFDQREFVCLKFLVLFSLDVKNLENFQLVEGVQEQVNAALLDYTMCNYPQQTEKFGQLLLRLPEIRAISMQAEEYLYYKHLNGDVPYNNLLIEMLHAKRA

cells [5] = format: functional, cell-based
cells [6] = format: functional, cell-based; remark: listed apart in the source
[7] = target: T2, Histone-lysine N-methyltransferase NSD2 (Homo sapiens, UniProt O96028); format: biochemical
T2 sequence (O96028 whole entry): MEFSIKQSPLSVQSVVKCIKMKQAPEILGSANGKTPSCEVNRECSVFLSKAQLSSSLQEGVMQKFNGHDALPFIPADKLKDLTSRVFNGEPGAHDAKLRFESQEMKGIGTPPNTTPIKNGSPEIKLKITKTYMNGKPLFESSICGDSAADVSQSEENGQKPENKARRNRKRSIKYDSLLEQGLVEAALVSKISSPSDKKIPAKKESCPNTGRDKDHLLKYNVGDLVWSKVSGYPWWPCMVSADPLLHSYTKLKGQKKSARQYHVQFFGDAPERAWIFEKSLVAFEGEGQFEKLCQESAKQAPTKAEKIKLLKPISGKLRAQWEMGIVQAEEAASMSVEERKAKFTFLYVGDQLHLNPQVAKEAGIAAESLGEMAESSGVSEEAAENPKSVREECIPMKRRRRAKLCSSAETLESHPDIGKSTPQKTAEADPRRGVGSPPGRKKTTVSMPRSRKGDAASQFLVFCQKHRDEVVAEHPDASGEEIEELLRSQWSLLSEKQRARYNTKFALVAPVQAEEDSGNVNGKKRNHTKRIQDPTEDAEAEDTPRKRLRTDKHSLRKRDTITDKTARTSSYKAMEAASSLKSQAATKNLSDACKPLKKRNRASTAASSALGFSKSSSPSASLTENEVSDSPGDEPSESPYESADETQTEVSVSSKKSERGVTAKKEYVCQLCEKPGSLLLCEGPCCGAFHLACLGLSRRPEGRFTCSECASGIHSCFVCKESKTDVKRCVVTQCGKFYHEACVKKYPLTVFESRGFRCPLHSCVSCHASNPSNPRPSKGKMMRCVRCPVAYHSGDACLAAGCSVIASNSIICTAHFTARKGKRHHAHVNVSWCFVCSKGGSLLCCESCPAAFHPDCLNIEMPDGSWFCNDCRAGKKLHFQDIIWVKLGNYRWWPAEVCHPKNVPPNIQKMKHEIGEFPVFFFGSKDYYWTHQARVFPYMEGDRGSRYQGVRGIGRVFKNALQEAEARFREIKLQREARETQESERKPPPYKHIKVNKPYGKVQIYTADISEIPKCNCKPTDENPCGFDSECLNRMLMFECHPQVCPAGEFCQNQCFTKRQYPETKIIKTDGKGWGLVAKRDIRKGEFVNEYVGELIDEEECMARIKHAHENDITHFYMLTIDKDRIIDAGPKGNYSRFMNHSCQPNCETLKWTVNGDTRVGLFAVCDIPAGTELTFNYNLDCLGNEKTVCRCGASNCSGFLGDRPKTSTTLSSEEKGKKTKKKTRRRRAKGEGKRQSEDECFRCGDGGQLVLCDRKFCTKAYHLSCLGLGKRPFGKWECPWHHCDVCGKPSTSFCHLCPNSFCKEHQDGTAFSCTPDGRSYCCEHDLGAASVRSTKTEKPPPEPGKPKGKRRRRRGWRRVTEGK

Streptococcus = test: GAS UMAA2166 growth inhibition – luminescence, BacTiterGlo, counter-screen for streptokinase expression inhibitor project, dose response (AID 1915); format: functional, organism-based;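 further: potency for reduction of bacterial viability or growth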
Streptokinase A = target: T3, Streptokinase A (Streptococcus pyogenes serotype M1, UniProt P10520); test: viability-normalized secreted streptokinase activity reduction – plasminogen activation absorbance, OD405, dose response (AID 1914); format: functional, Streptococcus pyogenes M1 GAS;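 further: secreted streptokinase activity via plasminogen activation per viability signal from cell pellet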
T3 sequence (P10520 whole entry): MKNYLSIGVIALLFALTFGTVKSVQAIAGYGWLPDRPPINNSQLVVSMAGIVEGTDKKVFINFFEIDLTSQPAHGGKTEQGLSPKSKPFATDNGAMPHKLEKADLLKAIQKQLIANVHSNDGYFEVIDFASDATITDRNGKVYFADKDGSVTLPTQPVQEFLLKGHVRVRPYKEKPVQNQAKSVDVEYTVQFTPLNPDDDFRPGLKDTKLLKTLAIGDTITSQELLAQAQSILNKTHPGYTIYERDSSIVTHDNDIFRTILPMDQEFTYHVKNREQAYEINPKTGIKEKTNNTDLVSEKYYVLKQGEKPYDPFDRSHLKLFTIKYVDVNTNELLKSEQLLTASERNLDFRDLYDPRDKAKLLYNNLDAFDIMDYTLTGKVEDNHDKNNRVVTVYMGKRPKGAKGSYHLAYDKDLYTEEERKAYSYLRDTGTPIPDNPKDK

[8] = HIV-1 AD8 envelope cell-cell fusion blockers – cherry-pick, dose response (AID 652062); format: functional, cell-based;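 further: luciferase signal from cell-cell fusion driven by HIV-1 clade B AD8 Env; potency is for inhibitors of fusion seen as a drop in luminescence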
[9] = A549 cell cytotoxicity, dose response, cytotoxicity control, plate reader, cherry-pick, antagonist series (AID 743412); format: functional, cell-based
[10] = intracellular Trypanosoma cruzi inhibitors in host cells – cell-based, plate reader, cherry-pick samples, set 3, dose response (AID 651818); format: functional;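 further: compounds incubated with infected cells for about four days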
[11] = blockers of HIV-1 envelope-mediated cell-cell fusion – cherry-pick, dose response (AID 652057); format: functional, cell-based
[12] = blockers of HIV-1 ZM109 envelope-driven cell-cell fusion – HeLa effector, CEM target cells, luciferase, cherry-pick, dose response (AID 652058); format: functional, cell-based;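 further: luciferase signal from HIV-1 Env mediated cell-cell fusion of effector and target cells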
Nonstructural protein 1 = Nonstructural protein 1 (Influenza A virus, UniProt Q194T2); format: functional, Influenza A virus (A/California/07/2009(H1N1))
Chain of Nonstructural protein 1 (Q194T2 whole entry): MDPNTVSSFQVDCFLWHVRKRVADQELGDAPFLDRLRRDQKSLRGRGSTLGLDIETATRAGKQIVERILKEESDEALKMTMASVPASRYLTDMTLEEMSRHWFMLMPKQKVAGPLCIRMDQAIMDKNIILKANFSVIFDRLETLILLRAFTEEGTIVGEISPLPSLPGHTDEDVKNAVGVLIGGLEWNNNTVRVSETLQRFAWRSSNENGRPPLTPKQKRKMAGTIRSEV

[13] = growth inhibition of yeast DHODH-expressing 3D7 parasites – SYBR Green, dry powder samples, dose response (AID 1159570); format: functional, cell-based;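 further: parasite growth measured after 72 hours of compound exposure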
[14] = P. falciparum Dd2 growth inhibitors, dose response, SYBR Green, cherry-picked samples (AID 1159567); format: functional, cell-based
[15] = growth inhibition of PfATP4-mutant resistant parasites – NITD609-resistant line, SYBR Green, dry powder, dose response (AID 1159571); format: functional, cell-based;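 further: parasites synchronized at ring stage by sorbitol before testing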
[16] = Dd2 malaria parasite growth inhibition potency – SYBR Green, dry powder samples, dose response (AID 1159566); format: functional, cell-based;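 further: potency for growth inhibition with lower SYBR green DNA signal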

c1ccc(-c2oc3ncnc(NCCN4CCOCC4)c3c2-c2ccccc2)cc1
IC50 (H9c2): > 79 µM (inactive)
CC50 [1]: > 40 µM (active)

Cc1ccc(S(=O)(=O)NC(=O)c2ccc(-c3ccc(-c4ccccc4)cc3)o2)c(C)c1
EC50 [2]: 3.33 µM (active)

COC(=O)[C@@]1(Cc2ccc(F)cc2)[C@H]2c3cc(C(=O)N(C)C)n(Cc4ccc(OC)c(OC)c4)c3C[C@H]2CN1C(=O)c1ccccc1
AC50 (Cytochrome P450 2C19): 39.8 µM (inconclusive)
AC50 (Cytochrome P450 2D6): 39.8 µM (inconclusive)
AC50 (Cytochrome P450 1A2): 31.6 µM (inconclusive)
CC50 [1]: > 40 µM (active)

CCCOc1ccc(NC(=O)CC2C(=O)N(C)C(=S)N2Cc2ccc3c(c2)OCO3)cc1 (stereo not drawn)
IC50 [3]: 35.9 µM (inactive)
IC50 (Steroidogenic factor 1): 2.03 µM (active)
IC50 [4]: 1.67 µM (active)

Cc1cccc(N2CCN(CC(=O)Nc3nccs3)CC2)c1C
EC50 [2]: 6.29 µM (active)

Nc1nc(SCC(=O)N2CCCC2)nc(O)c1-c1ccccc1
EC50 (cells [5]): > 350 µM (not active)
EC50 (cells [6]): > 350 µM (not active)

Nc1c(C(=O)OCC2CCCO2)c2nc3ccccc3nc2n1C1CCCCC1 (stereo not drawn)
AC50 [7]: 10 µM (active)

FC(F)Oc1ccccc1C1CC(c2ccc(Br)s2)Nc2ncnn21 (stereo not drawn)
EC50 (Streptococcus): > 150 µM (not active)
EC50 (Streptokinase A): > 150 µM (not active)
CC50 [1]: > 40 µM (active)

O=C(COC(=O)CCN1C(=O)C2CC=CCC2C1=O)NCCc1ccccc1 (stereo not drawn)
IC50 [3]: 35.9 µM (inactive)
IC50 (Steroidogenic factor 1): 25.8 µM (inactive)
IC50 [4]: 38 µM (inactive)

O=S(=O)(c1cccc(S(=O)(=O)N2CCC(Cc3ccccc3)CC2)c1)N1CCOCC1
EC50 [2]: 8.09 µM (active)

COc1cc(C(=O)Nc2sc(C)c(C)c2C(=O)O)cc(OC)c1OC
EC50 (cells [5]): > 350 µM (not active)
EC50 (cells [6]): > 350 µM (not active)

Cc1ccc(-n2nnnc2-c2cnn(-c3ccc(F)cc3)c2C(F)(F)F)cc1
AC50 [8]: 33.9 µM (active)

CCOC(=O)c1c(C)nc2sc(C(=O)Nc3ccccc3)c(N)c2c1-c1ccc(OC)cc1
CC50 [1]: 3.99 µM (active)

O=C(Nc1ccc(N2CCOCC2)c(S(=O)(=O)Nc2ccccc2Cl)c1)c1ccc(F)cc1
AC50 [9]: > 52 µM (inactive)

COc1ccc(CCNC(=O)CSc2nn3c(=O)c(C)nnc3s2)cc1OC
IC50 [3]: 35.9 µM (inactive)
IC50 (Steroidogenic factor 1): 12 µM (inactive)
IC50 [4]: 35.9 µM (inactive)

CC1(C)CN(c2cccc(C#N)c2)C1=O
AC50 [7]: 10.7 µM (active)

CC(C)Oc1cccc(-c2cc(C(=O)NN3CCOCC3)c3ccccc3n2)c1
IC50 [3]: 35.9 µM (inactive)
IC50 (Steroidogenic factor 1): 15.9 µM (inactive)
IC50 [4]: 35.9 µM (inactive)

C[C@H](CO)N1C[C@H](C)[C@@H](CN(C)CC2CCCCC2)Oc2c(NC(=O)c3nc4ccccc4s3)cccc2C1=O
AC50 [10]: 1.21 µM (active)

COc1ccc(CCNC(=O)CN2C(=O)NC3(CCCCC3C)C2=O)cc1 (stereo not drawn)
IC50 [3]: 35.9 µM (inactive)
IC50 (Steroidogenic factor 1): 4.78 µM (active)
IC50 [4]: 1.31 µM (active)

C[C@@H]1CN([C@H](C)CO)C(=O)c2cccc(N(C)C)c2O[C@H]1CN(C)Cc1ccc(Oc2ccccc2)cc1
AC50 [10]: 2.51 µM (active)

COc1cccc(S(=O)(=O)N(C)C[C@H]2Oc3cc(C#CCC(C)C)ccc3S(=O)(=O)N([C@H](C)CO)C[C@H]2C)c1
AC50 [8]: 17.9 µM (active)
AC50 [11]: 34.5 µM (active)

Cc1ccc(S(=O)(=O)Nc2cccc3c2O[C@H](CN(C)Cc2ccc(Cl)c(Cl)c2)[C@H](C)CN([C@H](C)CO)C3=O)cc1
AC50 [8]: 1.37 µM (active)
AC50 [11]: < 0.26 µM (active)
AC50 [12]: 0.308 µM (active)

O=C(CN1CCCC1)N/N=C/c1c(O)ccc2ccccc12
EC50 (cells [5]): 8.38 µM (active)
EC50 (cells [6]): > 350 µM (not active)
IC50 (Nonstructural protein 1): 9.17 µM (active)

CO[C@@H]1CN(C)C(=O)c2ccc(NC(=O)c3nc4ccccc4s3)cc2OC[C@H](C)N(Cc2ccncc2)C[C@@H]1C
AC50 [13]: 1.86 µM (active)
AC50 [14]: 0.985 µM (active)
AC50 [15]: 0.725 µM (active)
AC50 [16]: 0.792 µM (active)

COc1ccc2c3c(n(C)c2c1)[C@@H](CO)N(C(=O)C1CC1)CC31CCN(C(=O)Nc2cccc(F)c2)CC1
AC50 [13]: 0.171 µM (active)
AC50 [14]: 0.506 µM (active)
AC50 [15]: 0.441 µM (active)
AC50 [16]: 0.343 µM (active)

Cc1ccc(S(=O)(=O)N(C)C[C@H]2OCc3ccccc3-c3c(n(C)c4ccccc34)C(=O)N([C@H](C)CO)C[C@@H]2C)cc1
AC50 [13]: 1.27 µM (active)
AC50 [14]: 2.36 µM (active)
AC50 [15]: 1.08 µM (active)
AC50 [16]: 1.47 µM (active)
